Our source for the EC50 values is patent US8822464B2, “N-aryl-piperazine derivatives and their use as positive allosteric modulators of mGluR5 receptors” (Boehringer Ingelheim International GmbH, priority 2011, dated 2014).

In this assay the target is T1, human recombinant mGluR5 (Homo sapiens, UniProt P41594).
T1 construct: expressed in transfected cells; host or cells: HEK 293 cell line; cultured with tetracycline, hygromycin and geneticin; tetracycline withdrawn 3-7 days before the assay
T1 sequence (P41594 21-1212): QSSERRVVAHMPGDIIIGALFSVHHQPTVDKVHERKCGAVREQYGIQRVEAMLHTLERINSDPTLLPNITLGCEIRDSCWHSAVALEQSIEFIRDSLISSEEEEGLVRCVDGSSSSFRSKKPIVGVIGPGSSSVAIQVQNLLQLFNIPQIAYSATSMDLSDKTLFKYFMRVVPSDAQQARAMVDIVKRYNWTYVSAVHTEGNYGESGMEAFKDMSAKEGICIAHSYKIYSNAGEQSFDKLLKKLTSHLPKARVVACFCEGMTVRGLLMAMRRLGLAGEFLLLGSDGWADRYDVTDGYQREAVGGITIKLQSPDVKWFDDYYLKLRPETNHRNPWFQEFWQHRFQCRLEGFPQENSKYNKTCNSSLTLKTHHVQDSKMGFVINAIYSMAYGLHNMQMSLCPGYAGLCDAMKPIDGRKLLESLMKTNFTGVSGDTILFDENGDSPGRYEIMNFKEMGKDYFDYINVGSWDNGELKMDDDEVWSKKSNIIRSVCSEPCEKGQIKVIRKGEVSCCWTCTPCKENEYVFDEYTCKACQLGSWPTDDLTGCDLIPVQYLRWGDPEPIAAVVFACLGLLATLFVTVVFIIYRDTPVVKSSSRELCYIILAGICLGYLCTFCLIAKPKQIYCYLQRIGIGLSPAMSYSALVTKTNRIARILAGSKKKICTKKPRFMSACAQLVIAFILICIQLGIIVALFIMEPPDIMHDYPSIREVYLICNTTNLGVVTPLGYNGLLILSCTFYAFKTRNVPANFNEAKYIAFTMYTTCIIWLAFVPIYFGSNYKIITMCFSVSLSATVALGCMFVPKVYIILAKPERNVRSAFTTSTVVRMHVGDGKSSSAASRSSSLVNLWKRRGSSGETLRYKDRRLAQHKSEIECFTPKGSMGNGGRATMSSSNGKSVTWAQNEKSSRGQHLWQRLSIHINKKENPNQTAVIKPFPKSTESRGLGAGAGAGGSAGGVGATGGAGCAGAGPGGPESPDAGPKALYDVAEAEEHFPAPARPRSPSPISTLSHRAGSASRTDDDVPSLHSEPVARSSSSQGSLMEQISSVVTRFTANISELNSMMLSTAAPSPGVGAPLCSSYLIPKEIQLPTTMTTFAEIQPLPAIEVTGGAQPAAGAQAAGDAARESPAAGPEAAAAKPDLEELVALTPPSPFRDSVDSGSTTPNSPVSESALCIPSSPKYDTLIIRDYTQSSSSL
In words: positive modulation of mGluR5, calcium based FLIPR assay in HEK 293 cells. Conditions: HEK 293 cell line expressing human recombinant mGluR5; peak height of Ca release fluorescence signal after glutamate at approximately 5% basal stimulation; nonlinear regression. The procedure:
The positive modulation of mGluR5 is measured in a HEK 293 cell line expressing human recombinant mGluR5 and is detected with calcium based FLIPR assay. The cells are cultured with DMEM supplemented with 10% FCS, 2 μg/mL tetracycline, 100 μg/mL hygromycin and 500 μg/mL gneticin. The cell culture media is exchanged for tetracycline-free cell culture media 3-7 days before the assay. One day before the assay the cell culture medium is exchanged to DMEM without glutamine and phenol red and supplemented with 10% FCS, 100 μg/mL hygromycin and 500 μg/mL geneticin. On the assay day, the medium of the subconfluent cultures is removed and the cells are detached by addition of 2.5 ml EDTA(0.02%) per 175 cm2 culture flask for 1 minute. The cells are resuspend in Ringer solution (140 mM NaCl, 5 mM KCl, 2.5 mM CaCl2, 1.5 mM MgCl2, 5 mM Glucose, 10 mM Hepes; adjusted to pH 7.4 with NaOH), pooled and Ringer solution added to adjust the volume to 50 mL. The cell suspension is centrifuged for 5 min at 1500 U/min (425 g). The supernatant is removed and the cells washed a second time with 50 ml fresh Ringer solution and centrifuged again as before. The supernatant is again removed and the pellet resuspended in Ringer solution to 1,000,000 cells/ml (1×10^6 cells/mL). The cells are plated onto BD BioCoat Poly-D-Lysine 384 well plates (20.000 cells/well; 20 μl/well). The lid covered plates are then incubated until use at 37° C./10% CO2. For dye loading, 20 μl of Calcium-4 assay kit solution (prepared according to the manufacturer's description in Ringer solution) are added to the cells and the plates are incubated for 80 min 37° C. and then 10 min at room temperature.
Controls, Compound Dilution and Assay Execution:
Each assay plate contained wells with “high” and “low” controls:
Low controls 1% DMSO/ringer solution+basal glutamate activation (defined as 100% CTL).
High controls 10 μM CDPPB+basal glutamate activation (defined as 200% CTL).
Test compounds are dissolved and diluted in DMSO to 100-fold the desired concentrations. In a second step, the compounds are diluted in Ringer solution such that the compounds are 4-fold more concentrated than the desired final assay concentration. The final DMSO concentration was 1%.
20 μl of each compound solution are then transferred to the assay plate and the Ca2+ kinetic is measured to determine any intrinsic compound activity. After 5 min incubation in the FLIPR device, the second stimulation with 20 μl of glutamate in Ringer solution (glutamate concentration adjusted to approximately 5% basal stimulation of the maximal possible glutamate effect) is added and the kinetic Ca2+ response of the wells was measured for the modulation effect.
The peak height of the Ca release related fluorescence signal (9-66) is used for the EC50. The EC50 of the modulation is calculated over a nonlinear regression with GraphPad Prism (Table 1).
On to `Cc1ccc(-c2cc(-c3ccccc3)n(CC(=O)N3CCN(c4ccccn4)CC3)n2)cc1F` [Example 7.01.189], for which the EC50 was 0.048 µM.
With `Cc1ccc(-c2cc(-c3ccccc3)n(CC(=O)N3CCN(c4ncccn4)CC3)n2)cc1F` [Example 7.01.188] the figure was 0.027 µM.
With `Cc1cc(-c2cc(C3CC3)n(CC(=O)N3CCN(c4ccccn4)CC3)n2)ccc1F` [Example 7.01.41] the figure was 0.234 µM; with `CCc1cc(-c2cc(C)c(F)c(C)c2)nn1CC(=O)N1CCN(c2cc(OC)ncn2)CC1` [Example 7.01.140], 0.707 µM; with `CCc1cc(-c2cccc(C)c2)nn1CC(=O)N1CCN(c2cc(OC)ccn2)CC1` [Example 7.01.96], 0.168 µM.
Under `COc1cc(-c2cc(-c3ccccc3)n(CC(=O)N3CCN(c4ccccn4)CC3)n2)ccc1F` [Example 7.01.151] stands 0.019 µM; under `COc1cc(N2CCN(C(=O)Cn3nc(-c4ccc(C)c(F)c4)cc3-c3ccccc3)CC2)ncn1` [Example 7.01.190], 0.047 µM; under `COc1ccc(-c2cc(C(C)C)n(CC(=O)N3CCN(c4ncccn4)CC3)n2)cc1C` [Example 7.01.54], 0.205 µM.
In the case of `Cc1cc(-c2cc(C(C)C)n(CC(=O)N3CCN(c4ccccn4)CC3)n2)ccc1F` [Example 7.01.26], the EC50 was 0.138 µM.
Consider `COc1cc(-c2cc(C(C)C)n(CC(=O)N3CCN(c4ccccn4)CC3)n2)ccc1F` [Example 7.01.49], for which the concentration giving a half-maximal response (EC50) was 1.06 µM.
Take `CC(C)c1cc(-c2ccc(F)cc2)nn1CC(=O)N1CCN(c2ncccn2)CC1` [Example 7.01.90]: the concentration for a half-maximal effect (EC50) came out at 0.157 µM.
With `CCCc1cc(-c2ccc(F)c(C)c2)nn1CC(=O)N1CCN(c2ncccn2)CC1` [Example 7.01.81], the EC50 amounted to 0.013 µM.
Under `O=C(Cn1nc(-c2ccccc2)cc1-c1ccccc1)N1CCN(c2ccncn2)CC1` [Example 7.01.08] stands 0.349 µM.
With `CCc1cc(-c2ccc(F)c(C)c2)nn1CC(=O)N1CCN(c2ncc(F)cn2)CC1` [Example 7.01.72] the figure was 0.063 µM; with `CCc1cc(-c2ccc(F)c(C)c2)nn1CC(=O)N1CCN(c2ncc(OC)cn2)CC1` [Example 7.01.71], 0.051 µM.
Regarding `COc1cc(N2CCN(C(=O)Cn3nc(-c4cccc(C)c4)cc3-c3ccccc3)CC2)ncn1` [Example 7.01.173], the EC50 stood at 0.011 µM.
As for `CCCc1cc(-c2ccc(F)c(C)n2)nn1CC(=O)N1CCN(c2ncccn2)CC1` [Example 7.01.185], the EC50 worked out at 0.442 µM.
Consider `COCc1cc(-c2ccc(F)c(C)c2)nn1CC(=O)N1CCN(c2cc(OC)ccn2)CC1` [Example 7.02.17], for which the EC50 came to 0.182 µM.
For `COc1cnc(N2CCN(C(=O)Cn3nc(-c4cccc(Cl)c4)cc3-c3ccccc3)CC2)nc1` [Example 7.01.147], the EC50 came out at 0.019 µM.
With `CCc1cc(-c2ccc(F)cc2)nn1CC(=O)N1CCN(c2ncccn2)CC1` [Example 7.01.74] the figure was 0.253 µM.
Regarding `COc1ccc(-c2cc(C(C)C)n(CC(=O)N3CCN(c4cccnn4)CC3)n2)cc1` [Example 7.01.22], the EC50 was determined as 0.701 µM.
With `CCCc1cc(-c2ccc(F)c(C)c2)nn1CC(=O)N1CCN(c2ccccn2)CC1` [Example 7.01.83] the figure was 0.052 µM; with `Cc1cnc(-c2cc(-c3ccccc3)n(CC(=O)N3CCN(c4ncccn4)CC3)n2)cc1C` [Example 7.01.135], 0.021 µM; with `CCc1cccc(-c2cc(CC)n(CC(=O)N3CCN(c4ncccn4)CC3)n2)c1` [Example 7.01.131], 0.059 µM.
Under `Cc1cc(-c2cc(C3CC3)n(CC(=O)N3CCN(c4cccnn4)CC3)n2)ccc1F` [Example 7.01.43] stands 0.725 µM; under `Cc1cnc(-c2cc(-c3ccccc3)n(CC(=O)N3CCN(c4ccccn4)CC3)n2)cc1C` [Example 7.01.136], 0.038 µM; under `COc1cnc(N2CCN(C(=O)Cn3nc(-c4ccc(F)c(C)c4)cc3C(C)C)CC2)nc1` [Example 7.01.32], 0.075 µM.
With `Cc1cc(-c2cc(C)n(CC(=O)N3CCN(c4cccnn4)CC3)n2)ccc1F` [Example 7.02.24] the figure was 0.34 µM; with `Cc1ccc(-c2cc(-c3ccccc3)n(CC(=O)N3CCN(c4ncccn4)CC3)n2)nc1` [Example 7.01.111], 0.024 µM.
Regarding `Cc1cc(-c2cc(C)n(CC(=O)N3CCN(c4ncccn4)CC3)n2)ccc1F` [Example 7.01.104], the EC50 amounted to 0.039 µM.
As to `O=C(Cn1nc(-c2ccccc2)cc1-c1ccccc1)N1CCN(c2ccccc2)CC1` [Example 7.02.04], the EC50 was 0.393 µM.
Under `COc1cc(N2CCN(C(=O)Cn3nc(-c4ccc(F)cc4)cc3-c3ccc(F)cc3)CC2)ncn1` [Example 7.01.14] stands 0.022 µM.
With `COc1cc(N2CCN(C(=O)Cn3nc(-c4ccc(F)c(C)c4)cc3CC(C)C)CC2)ncn1` [Example 7.01.121] the figure was 0.034 µM; with `CCc1cc(-c2cccc(C)c2)nn1CC(=O)N1CCN(c2cc(OC)ncn2)CC1` [Example 7.01.97], 0.181 µM.
With `COc1cc(-c2cc(C(C)C)n(CC(=O)N3CCN(c4ncccn4)CC3)n2)ccc1F` [Example 7.01.51] the figure was 0.485 µM; with `Cc1cc(-c2cc(C(C)C)n(CC(=O)N3CCN(c4ncc(F)cn4)CC3)n2)ccc1F` [Example 7.01.31], 0.208 µM; with `COc1ccnc(N2CCN(C(=O)Cn3nc(-c4ccc(F)cc4)cc3-c3ccc(F)cc3)CC2)c1` [Example 7.01.16], 0.032 µM.
Regarding `O=C(Cn1nc(-c2ccccc2)cc1-c1ccccc1)N1CCN(c2ncccn2)CC1` [Example 7.02.01, 2-(3,5-diphenyl-pyrazol-1-yl)-1-(4-(2-pyrimidinyl)-1-piperazinyl)-ethanon], the EC50 is 0.035 µM.
Under `COc1cc(-c2cc(-c3ccccc3)n(CC(=O)N3CCN(c4ncccn4)CC3)n2)ccc1F` [Example 7.01.150] stands 0.005 µM; under `COc1cccc(N2CCN(C(=O)Cn3nc(-c4ccc(F)c(C)c4)cc3-c3ccccc3)CC2)c1` [Example 7.01.144], 0.057 µM; under `Cc1cc(-c2cc(C3CC3)n(CC(=O)N3CCN(c4ncccn4)CC3)n2)ccc1F` [Example 7.01.42], 0.101 µM.
With `O=C(Cn1nc(-c2ccc(OC(F)F)cn2)cc1-c1ccccc1)N1CCN(c2ncccn2)CC1` [Example 7.01.178] the figure was 0.021 µM; with `COc1cc(N2CCN(C(=O)Cn3nc(-c4ccc(F)c(C)c4)cc3C)CC2)ncn1` [Example 7.02.23], 0.06 µM.
Regarding `Cc1cc(-c2cc(-c3ccccc3)n(CC(=O)N3CCN(c4ccccn4)CC3)n2)ccc1F` [Example 7.01.04], the EC50 came out at 0.011 µM.
Under `Cc1ccc(-c2cc(-c3ccccc3)n(CC(=O)N3CCN(c4ccccn4)CC3)n2)nc1` [Example 7.01.106] stands 0.035 µM; under `Cc1ccc(-c2cc(-c3ccccc3)n(CC(=O)N3CCN(c4ncccn4)CC3)n2)cc1C` [Example 7.01.98], 0.013 µM.
With `COc1ccc(-c2cc(C(C)C)n(CC(=O)N3CCN(c4cc(C)ccn4)CC3)n2)cc1` [Example 7.01.21] the figure was 0.111 µM.
Under `Cc1cc(-c2cc(C3CCCCC3)n(CC(=O)N3CCN(c4ncccn4)CC3)n2)ccc1F` [Example 7.01.34] stands 0.06 µM; under `O=C(Cn1nc(C2CCCCC2)cc1-c1ccc(F)cc1)N1CCN(c2ncccn2)CC1` [Example 7.04.02], 0.081 µM; under `Cc1cc(-c2cc(CC(C)C)n(CC(=O)N3CCN(c4ncc(F)cn4)CC3)n2)ccc1F` [Example 7.01.122], 0.051 µM.
For `CCc1cc(-c2ccc(C)c(C)c2)nn1CC(=O)N1CCN(c2ccccn2)CC1` [Example 7.01.91], the EC50 amounted to 0.195 µM.
Under `COc1cc(N2CCN(C(=O)Cn3nc(-c4ccc(C)c(C)c4)cc3-c3ccccc3)CC2)ncn1` [Example 7.01.101] stands 0.017 µM; under `COc1ccnc(N2CCN(C(=O)Cn3nc(-c4ccc(F)c(C)c4)cc3C3CC3)CC2)c1` [Example 7.01.46], 0.333 µM.
With `Cc1cccc(-c2cc(-c3ccccc3)nn2CC(=O)N2CCN(c3ncccn3)CC2)c1` [Example 7.01.164] the figure was 0.042 µM.

The term EC50 denotes the concentration that produces a half-maximal response.
